Measurements published in patent US5466717A, “Halogenated 4'-methoxyacetophenones as microbicides and preservatives” (Buckman Laboratories Int'l, Inc., priority 1993, dated 1995).
Like-named read-outs stand apart in the source and are kept apart here.

What was measured:
Format in all cases: cell-based
[1] = tested on: Chlorella pyrenoidosa; experiment: Growth inhibition of algae in Difco Algae Broth (Table 6); conditions: Auxenochlorella pyrenoidosa, 672 h, read-out: Minimum inhibitory concentration
Description: The growth-inhibiting activity of the method of the invention against the algae Chlorella pyrenoidosa was evaluated at two different pH levels in Difco Algae Broth. The content of the broth was as follows: Forty-gram portions of the algae medium were added to 250 mL Erlenmeyer flasks fitted with loose metal caps and were then sterilized. Each of the following substances was then added to the flasks in the order listed: (1) Sterile algae medium as required to bring the total weight of the contents of each flask to 50 grams, after allowing for all subsequent additions specified below. (2) A solution of the toxicant or of a control agent to be evaluated in each test, to give the concentration desired in parts per million by weight. (3) Chlorella pyrenoidosa, in amounts sufficient to give excellent growth in the controls after 14 days. This was achieved by adding 1 milliliter of a 14 day old culture having luxuriant growth. The Chlorella pyrenoidosa culture was obtained from American Type Culture Collection No. 7516. Control experiments were carried out where no toxicants were employed. In the algicidal tests the growth of algae in the nutrient is lush green and can be seen with the naked eye. Since the minimum inhibitory concentrations of the compounds in this example are those which result in complete inhibition, evaluation of the test results is not subjective. After the inoculum of the test algae was added, the flasks were incubated at a temperature of 28°±2° C. under fluorescent illumination of 250 foot-candle intensity (8 hours light, 16 hours darkness) for a period adequate for growth in the controls (those portions of medium which contained no toxicant). Observations of growth were made at 7-day intervals. Minimum inhibitory concentrations are those that prevented complete growth after 28 days.

[2] = tested on: Pseudomonas aeruginosa, Enterobacter serogenes and Bacillus subtilus; experiment: Preservation of acrylic latex paint, 9 week multiple challenge test (Table 1); design: key: 0: no growth was observed; +: less than 10 colonies were observed; ++: 10 or more colonies were observed
Description: The preservative effectiveness of compounds 1 and 2 was determined in a freshly prepared water-based paint formulated with titanium dioxide and calcium carbonate as pigments, an acrylic resin emulsion, dispersants, and hydroxyethyl cellulose as a thickener. The pH of this paint was approximately 9.0. […] One hundred gram samples of the test paints were challenged initially and at the end of the third and sixth weeks in a three-challenge, nine-week test with 1.0 milliliter of […] containing Pseudomonas aeruginosa, Enterobacter serogenes and Bacillus subtilus at a level of approximately 1.5×10^6 organisms per milliliter. After vigorous shaking, the inoculated paint was incubated at 28° C. Growth in system was monitored by streaking a sample of each test paint onto a nutrient agar on plates at intervals of 1 day, 2 days, 3 days, 7 days, and 21 days after each challenge. The streaked plates were incubated at 37° C. and examined for bacterial growth after 24 hours (challenge 1). A second sample of the same inoculated paint was rechallenged at the end of 21 days (challenge 2) and again at the end of 42 days (challenge 3).

[3] = tested on: Desulfovibrio desulfuricans; experiment: Effectiveness against sulfate reducing bacterium, Method API Rp 38 (Table 7); design: key: +: growth; 0: no growth; conditions: pH 7.0, duplicates
Description: (§1) The effectiveness of compounds 1 and 2 against Desulfovibrio desulfuricans,a sulfate reducing bacterium, was determined using the method recommended by the American Petroleum Institute (Method API Rp 38). The composition of the sulfate-reducer medium for the bacteriostatic test is as follows: The ingredients are dissolved by gentle heating with constant stirring. […] If necessary, the medium is then filtered through Whatman No. 1 or No. 2 filter paper. Following filtration, the medium is autoclaved at 15 lb steam pressure for […]. After autoclaving, the medium is allowed to cool slightly and the iron salt, Fe(SO4)2 (NH4)2.6H2 O, is added. The pH is then checked and readjusted if necessary. The medium is now cooled to room temperature as rapidly as possible, without agitation. After cooling, the medium is inoculated from the third successive 24-hour transfer of an actively growing culture (a liquid culture which turns black within 24 hours after inoculation) of sulfate-reducing bacteria. Ten milliliters of inoculum are added to each liter of medium. From stock solutions of the chemical to be screened, sufficient amounts of the compounds are added to 1- or 2-oz clear bottles so that the desired concentrations of chemicals are present when the containers are filled. The amount of stock solution added cannot exceed 10 percent of the volume of the test bottle. After addition of the chemical, the bottles are completely filled with the inoculated medium. The bottles are then capped with plastic caps containing cork and aluminum foil or Teflon liners and are incubated at 30°±2° C. All work is done in duplicate with at least three controls for each series. The controls consist of bottles filled with inoculated medium only. Growth of sulfate-reducing bacteria in the bottles is indicated by an intense blackening of the medium, whereas containers having sufficient chemical to inhibit growth will remain clear. Bottles with no sulfate-reducing bacteria growth are observed for a period of 28 days after the controls have blackened. The results were recorded using a +/0 scale where "+" indicates growth and "0" indicates no growth.

[4] = tested on: Desulfovibrio desulfuricans; experiment: as above; design: key: 4: excellent; 3: good; 2: poor; 1: very poor, scant, questionable; 0: no growth; conditions: pH 7.0, duplicates
Description: as §1

[5] = tested on: P. aeruginosa; experiment: Basal salts method, percentage kill of P. aeruginosa (Table 5); conditions: Pseudomonas aeruginosa
Description: Compounds 1 and 2 were tested against bacterial growth by the basal salts method described in U.S. Pat. No. 2,881,070, Column 5, line 12--Column 6, line 53. The disclosure of U.S. Patent No. 2,881,070 is specifically incorporated here by reference.

COc1ccc(C(=O)CBr)cc1Br [Compound 1, 2,3'-dibromo-4'-methoxyacetophenone]
99.6%: killing at 30 ppm ([5]; pH 8.0)
+: growth of Desulfovibrio desulfuricans ([3]; 1 ppm) | growth of Desulfovibrio desulfuricans ([3]; 2 ppm) | growth of Desulfovibrio desulfuricans ([3]; 8 ppm)
++ (10 or more colonies were observed): Observation of growth 21 days after challenge ([2]; 100 ppm w/w, challenge 1) | Observation of growth 21 days after challenge ([2]; 100 ppm w/w, challenge 2) | Observation of growth 21 days after challenge ([2]; 100 ppm w/w, challenge 3)
0: Observation of growth 21 days after challenge ([2]; 250 ppm w/w, challenge 1) | Observation of growth 21 days after challenge ([2]; 250 ppm w/w, challenge 2) | Observation of growth 21 days after challenge ([2]; 250 ppm w/w, challenge 3) | Observation of growth 21 days after challenge ([2]; 500 ppm w/w, challenge 1) | Observation of growth 21 days after challenge ([2]; 500 ppm w/w, challenge 2) | Observation of growth 21 days after challenge ([2]; 500 ppm w/w, challenge 3) | Observation of growth 21 days after challenge ([2]; 2500 ppm w/w, challenge 1) | Observation of growth 21 days after challenge ([2]; 2500 ppm w/w, challenge 2) | Observation of growth 21 days after challenge ([2]; 2500 ppm w/w, challenge 3) | Observation of growth 21 days after challenge ([2]; 5000 ppm w/w, challenge 1) | Observation of growth 21 days after challenge ([2]; 5000 ppm w/w, challenge 2) | Observation of growth 21 days after challenge ([2]; 5000 ppm w/w, challenge 3) | growth of Desulfovibrio desulfuricans ([4]; 4 ppm) | growth of Desulfovibrio desulfuricans ([4]; 10 ppm) | growth of Desulfovibrio desulfuricans ([4]; 15 ppm) | growth of Desulfovibrio desulfuricans ([4]; 20 ppm)
4 µg/mL: MIC ([1]; pH 7.0, 28 days)
2 µg/mL: MIC ([1]; pH 8.0, 28 days)
100%: killing at 10 ppm ([5]; pH 6.0) | killing at 20 ppm ([5]; pH 6.0) | killing at 30 ppm ([5]; pH 6.0)
98%: killing at 10 ppm ([5]; pH 8.0)
99%: killing at 20 ppm ([5]; pH 8.0)

COc1ccc(C(=O)C(Br)Br)cc1Br [Compound 2, 2,2,3'-tribromo-4'-methoxyacetophenone]
100%: killing at 20 ppm ([5]; pH 6.0) | killing at 20 ppm ([5]; pH 8.0) | killing at 30 ppm ([5]; pH 8.0)
0: Observation of growth 21 days after challenge ([2]; 250 ppm w/w, challenge 1) | Observation of growth 21 days after challenge ([2]; 250 ppm w/w, challenge 2) | Observation of growth 21 days after challenge ([2]; 250 ppm w/w, challenge 3) | Observation of growth 21 days after challenge ([2]; 500 ppm w/w, challenge 1) | Observation of growth 21 days after challenge ([2]; 500 ppm w/w, challenge 2) | Observation of growth 21 days after challenge ([2]; 500 ppm w/w, challenge 3) | Observation of growth 21 days after challenge ([2]; 2500 ppm w/w, challenge 1) | Observation of growth 21 days after challenge ([2]; 2500 ppm w/w, challenge 2) | Observation of growth 21 days after challenge ([2]; 2500 ppm w/w, challenge 3) | Observation of growth 21 days after challenge ([2]; 5000 ppm w/w, challenge 1) | Observation of growth 21 days after challenge ([2]; 5000 ppm w/w, challenge 2) | Observation of growth 21 days after challenge ([2]; 5000 ppm w/w, challenge 3) | growth of Desulfovibrio desulfuricans ([4]; 4 ppm) | growth of Desulfovibrio desulfuricans ([4]; 8 ppm) | growth of Desulfovibrio desulfuricans ([4]; 10 ppm) | growth of Desulfovibrio desulfuricans ([4]; 15 ppm) | growth of Desulfovibrio desulfuricans ([4]; 20 ppm)
++ (10 or more colonies were observed): Observation of growth 21 days after challenge ([2]; 100 ppm w/w, challenge 1) | Observation of growth 21 days after challenge ([2]; 100 ppm w/w, challenge 2) | Observation of growth 21 days after challenge ([2]; 100 ppm w/w, challenge 3)
+: growth of Desulfovibrio desulfuricans ([3]; 1 ppm) | growth of Desulfovibrio desulfuricans ([3]; 2 ppm) | growth of Desulfovibrio desulfuricans ([3]; 8 ppm)
4 µg/mL: MIC ([1]; pH 8.0, 28 days)
8 µg/mL: MIC ([1]; pH 7.0, 28 days)
99.8%: killing at 10 ppm ([5]; pH 6.0)
94%: killing at 10 ppm ([5]; pH 8.0)
